Data published in US20100144809A1, “NOVEL BENZAMIDINE DERIVATIVES USEFUL AS POTASSIUM CHANNEL MODULATORS” (Neuro Search A/S, priority 2007, published 2010).

target: T1, human BK channels (Homo sapiens, UniProt Q12791); assay: Electrophysiological determination of BK current, two-electrode voltage clamp in Xenopus oocytes; assay type: cell-based; conditions: 30 μM; increase of BK current relative to the basal current; Xenopus oocytes expressing human BK channels
T1 construct: expressed in transfected cells; host or cells: Xenopus oocytes
Description: In this experiment we investigated the influence of the compounds of the invention on the membrane currents when determined electrophysiologically on Xenopus Oocytes capable of expressing human BK channels, and the current through the channels is recorded using the classical two-electrode voltage clamp technique.
The results of these determinations are presented in Table 1 below, and presented as the increase of BK current relative to the basal current.

T1 sequence (Q12791 whole entry): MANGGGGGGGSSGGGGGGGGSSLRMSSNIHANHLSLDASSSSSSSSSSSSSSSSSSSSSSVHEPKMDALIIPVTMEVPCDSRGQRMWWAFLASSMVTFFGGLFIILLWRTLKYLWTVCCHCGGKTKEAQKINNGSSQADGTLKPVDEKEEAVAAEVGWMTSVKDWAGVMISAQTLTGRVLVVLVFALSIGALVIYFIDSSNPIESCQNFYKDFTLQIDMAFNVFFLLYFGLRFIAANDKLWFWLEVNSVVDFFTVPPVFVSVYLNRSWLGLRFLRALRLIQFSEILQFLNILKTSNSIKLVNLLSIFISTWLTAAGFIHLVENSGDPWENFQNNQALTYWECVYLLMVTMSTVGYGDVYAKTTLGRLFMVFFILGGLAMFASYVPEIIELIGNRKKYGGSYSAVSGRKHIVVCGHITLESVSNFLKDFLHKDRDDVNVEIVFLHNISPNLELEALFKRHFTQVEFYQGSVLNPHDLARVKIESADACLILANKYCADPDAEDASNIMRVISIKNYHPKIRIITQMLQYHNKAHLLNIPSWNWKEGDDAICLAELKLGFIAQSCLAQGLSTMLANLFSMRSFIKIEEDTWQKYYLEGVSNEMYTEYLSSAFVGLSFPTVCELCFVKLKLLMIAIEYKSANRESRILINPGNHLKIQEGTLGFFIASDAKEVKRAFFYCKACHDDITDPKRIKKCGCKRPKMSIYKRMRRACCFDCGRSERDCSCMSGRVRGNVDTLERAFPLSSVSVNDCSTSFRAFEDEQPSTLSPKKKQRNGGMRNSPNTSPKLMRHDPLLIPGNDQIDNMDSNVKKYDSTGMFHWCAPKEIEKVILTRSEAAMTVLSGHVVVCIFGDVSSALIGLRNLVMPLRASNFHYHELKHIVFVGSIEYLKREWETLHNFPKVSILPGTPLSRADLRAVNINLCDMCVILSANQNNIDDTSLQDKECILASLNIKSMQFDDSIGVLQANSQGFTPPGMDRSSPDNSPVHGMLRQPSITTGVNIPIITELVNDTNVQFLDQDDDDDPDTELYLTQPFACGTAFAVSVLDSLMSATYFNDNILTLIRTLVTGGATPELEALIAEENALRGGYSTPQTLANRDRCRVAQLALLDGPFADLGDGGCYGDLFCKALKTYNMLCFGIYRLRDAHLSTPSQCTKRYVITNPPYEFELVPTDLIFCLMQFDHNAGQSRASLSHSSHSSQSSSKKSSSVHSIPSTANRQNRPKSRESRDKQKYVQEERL

Row | SMILES | Relative Increase of BK Current
1 | NNC(=Nc1ccc(-c2ccc(C(F)(F)F)cc2)cc1-c1nnn[nH]1)c1cc(C(F)(F)F)cc(C(F)(F)F)c1 [Compound 1, N-Amino-N′-[3-(1H-tetrazol-5-yl)-4′-trifluoromethyl-biphenyl-4-yl]-3,5-bis-trifluoromethyl-benzamidine] | 1118%
2 | O=c1[nH]nc(-c2cc(C(F)(F)F)cc(C(F)(F)F)c2)n1-c1ccc(-c2ccc(C(F)(F)F)cc2)cc1-c1nn[nH]n1 [Compound 2, 5-(3,5-Bis-trifluoromethyl-phenyl)-4-[3-(2H-tetrazol-5-yl)-4′-trifluoromethyl-biphenyl-4-yl]-2,4-dihydro-[1,2,4]triazol-3-one] | 252%
3 | ONC(=Nc1ccc(-c2ccc(C(F)(F)F)cc2)cc1-c1nnn[nH]1)c1cc(C(F)(F)F)cc(C(F)(F)F)c1 [Compound 3, N-Hydroxy-N′-[3-(1H-tetrazol-5-yl)-4′-trifluoromethyl-biphenyl-4-yl]-3,5-bis-trifluoromethyl-benzamidine] | 1342%
